Values quoted from earlier work in patent US20090311317A1, “MODIFIED RELEASE TOLTERODINE FORMULATIONS” (Capricorn Pharma Inc., priority 2008, published 2009).
Where a name gives a salt, the structure may show the parent alone.

Assays:
[1] = test system: muscarinic receptors of the salivary gland; conditions: versus oxybutynin
[2] = test system: bladder; conditions: versus oxybutynin

Cc1ccc(O)c([C@@H](CCN(C(C)C)C(C)C)c2ccccc2)c1 [tolterodine, (+)-N,N-diisopropyl-3-(2-hydroxy-5-methylphenyl)-3-phenylpropylamine L-hydrogen tartrate]
affinity for muscarinic receptors of the salivary gland relative to oxybutynin [1]: eight times lower
potency in the bladder relative to oxybutynin [2]: equipotent with oxybutynin
